According to US20220218710A1, “Inhibition of Neddylation for Treatment of MS” (The Regents of the University of California, priority 2019, published 2022):

Test system: experimental autoimmune encephalomyelitis (EAE)
Type: in vivo, C57BL/6 mice
Description: FIGS. 3A, 3B, and 3C. FIGS. 3A, 3B, and 3C depicts pevonedistat treatment effects in an MS animal model. FIG. 3A depicts the trial design: C57BL/6 mice were treated daily starting on Day−1 with either Pevonedistat (20 mg/kg) or placebo (n=10/group). The result shown here is one representative of two independent experiments. EAE was induced through active immunization with myelin oligodendrocyte (MOG) peptide 35-55 following standard protocols (triangles). Weights were taken on D−1, D7, and D14 (dots). Animals were scored daily. Mice were sacrificed and brain and spinal cords of were harbored on Day 16 at peak disease (n=4/group) (triangle). FIG. 3B depicts EAE severity: Diseases was assessed blinded using a […] scale from 0 to 5 (0=no symptoms, 5=death). Data shown here are from one representative of two experiments. FIG. 3C depicts mice weights over the course of the experiment. ****p-value<0.001, 2-way ANOVA test.
EAE induction and neddylation inhibition in mice. Four weeks old female C57BL/6 mice were used. All mice were housed in closed caging systems and provided with standard irradiated chow diet, acidified water ad libitum and housed under a 12-hour light cycle. Pevonedistat (MLN4924) (Chemietek Inc., Indianapolis, Ind.) was dissolved in DMSO and further diluted in 30% of PEG300 and 5% of TWEEN in ddH2O at a concentration of 40 mg/mL and stored at −20° C. 7-8 week old mice were treated daily with 20 mg/kg Pevonedistat or vehicle (same concentration of buffer without Pevonedistat) starting at day −1. Mice were immunized subcutaneously on day 0 with 100 μg MOG35-55 emulsified in incomplete Freund's adjuvant supplemented with Mycobacterium tuberculosis followed by two intraperitoneal injections on Day 0 and Day 2 with 300 ng pertussis each. […] Mice were scored daily on a […] scale in a blinded fashion as follows: 0, no deficit; 1, limp tail only; 2, limp tail and hind limb weakness; 3, complete hind limb paralysis; 4, complete hind limb paralysis and partial/complete forelimb paralysis; 5, death.
Inhibition of neddylation reduces EAE. […] Pevonedistat (MLN4924), which is a small molecule and first-in-class inhibitor of NAE was next used in experimental autoimmune encephalomyelitis (EAE), an established MS mouse model driven by a strong CD4+ T cell response (FIG. 3A). Although Pevonedistat was originally tested as a cancer therapy, recent studies proposed this agent as a potential therapeutic target for immune-related diseases due to the important role of neddylation in immune cell functions.

[1] = 20 mg/kg daily, EAE mice at peak disease

Which results are given for NS(=O)(=O)OC[C@@H]1C[C@@H](n2ccc3c(N[C@H]4CCc5ccccc54)ncnc32)C[C@@H]1O [Pevonedistat, pevonedistat]?
EAE severity (10-point scale from 0 to 5, scored daily, blinded) (20 mg/kg daily from day -1, compared to placebo-treated group, FIG. 3B): significantly reduced EAE severity; density of CD3+ T cells in spinal cord [1]: decreased densities; density of Iba1+ myeloid cells in spinal cord [1]: decreased densities; spinal cord inflammation (inflammatory infiltrates) (20 mg/kg daily, EAE spinal cords at peak disease, vs placebo): dramatic reduction in spinal cord inflammation; demyelination, histological assessment of CNS tissue (20 mg/kg daily, at peak disease (Day 16)): significant reduction of demyelination; mice weights during the disease course (20 mg/kg daily, placebo group had significant weight loss at peak of disease, FIG. 3C): steady weight
